Measured values reported in paper PMC10564737, “Structure-based design of a phosphotyrosine-masked covalent ligand targeting the E3 ligase SOCS2” (Nature Communications, 2023).
Where “and” joins values, the source holds several entries; their conditions need not be identical. Equal values may be shown once.

Biological target: T1, SBC2 (Homo sapiens, UniProt O14508)
T1 construct: SOCS2 (amino acids 32–198); His6 (N, cleaved yes); made in house; host or cells: E. coli BL21(DE3)
Assay: Covalent fluorescence polarization (FP) probe displacement assay
Assay type: binding
Details: for Anisotropy based on Raw Data (485): Cycle 7 (30 min)
Description: With the specific covalent modification of Cys111 established, we decided to fully characterize MN551 as a covalent SOCS2 inhibitor. […] (Fig. 2g, h, Supplementary Fig. 9). Due to the covalent nature of the competing inhibitor, a time-dependent reduction in the fraction of protein-bound probe is observed. […] This value illustrates reasonable specificity for a covalent inhibitor, with nonetheless scope for future optimization. In addition to characterizing the kinetic covalency parameters, we have also assessed the stability of the MN551 by monitoring its reactivity (half-life >70 min) with reduced glutathione (GSH) (Supplementary Fig. 10)[35].
To monitor the SBC2-ligand binding kinetics we designed a fluorescein-labeled small-molecule probe - compound 26. The fluorescence polarization (anisotropy) of a threefold serial dilution of 50 µM SBC2 in 10 nM of the probe in 100 mM HEPES pH 7.5, 50 mM NaCl, 0.5 mM TCEP, 2% DMSO was measured to determine the KL (Supplementary Fig. 9A) (BMG Labtech PHERAstar – firmware v1.33). Protein titration and the curves were fitted using GraphPad Prism 9, using one-site fitting models to determine the probe binding constant, KL. Samples were run in triplicate in 384 well plates, using a total volume per well of 16 μL. The bound fraction of the probe is measure using the equation:1 Fb=Af−A/Af−Ab Where,
A time-dependent reduction in probe anisotropy were measured for a 2-fold serial dilution of […] compound MN551 in 10 nM probe +300 μM SBC2. To determine the initial reversible binding affinity, the initial bound fraction of the probe at time = 0, Fbo (the y-intercept in Fb v/s Time plot, Supplementary Fig. 9B) was plotted against MN551 concentration, and the obtained IC50 is then converted to Ki (Supplementary Fig. 9C)[17]. The slope from Fb versus time graph when divided by Fbo gives rate of covalency, kobs. A plot of kobs v/s MN551 concentration using Michaelis–Menten model of GraphPad Prism 9, provides the parameters kinact (maximum potential rate of inactivation) and KI (concentration of MN551 at which kobs = kinact/2) (Supplementary Fig. 9D, E).
The observed first-order rate constant, kobs is related to KI and kinact by the equation:2 kobs=kinactI/KI+I
At [I]«[KI] the above equation is converted to3 […]
The slope from the plot of kobs against concentration of MN551 gives us the covalent efficiency parameter kinact/KI (Supp Fig. 9F)[30],[33].

[1] = MN551 48.4003 nM, Cycle 12 (55 min)
[2] = MN551 67.7604 nM, Cycle 12 (55 min)
[3] = MN551 94.8645 nM, Cycle 12 (55 min)
[4] = MN551 132.81 nM, Cycle 6 (25 min)
[5] = MN551 132.81 nM, Cycle 12 (55 min)
[6] = MN551 185.934 nM, Cycle 6 (25 min)
[7] = MN551 185.934 nM, Cycle 12 (55 min)

T1 sequence (O14508 32-198): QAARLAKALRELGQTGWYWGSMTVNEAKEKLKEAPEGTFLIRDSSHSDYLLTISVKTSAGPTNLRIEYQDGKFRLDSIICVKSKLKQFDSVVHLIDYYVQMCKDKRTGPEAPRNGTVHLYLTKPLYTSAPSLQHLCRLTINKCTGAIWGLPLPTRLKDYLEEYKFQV
T1 sequence (Q15370 1-104 partner limits assumed): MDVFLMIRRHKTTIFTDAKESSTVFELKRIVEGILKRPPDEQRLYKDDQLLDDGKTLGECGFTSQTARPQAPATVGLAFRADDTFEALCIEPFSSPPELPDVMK
T1 sequence (Q15369 17-112 partner limits assumed): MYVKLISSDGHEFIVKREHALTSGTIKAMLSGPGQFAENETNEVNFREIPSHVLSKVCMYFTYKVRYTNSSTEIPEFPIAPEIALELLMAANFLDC

## O=C(CCl)Nc1cccc(CNC(=O)[C@H](Cc2ccc(OP(=O)(O)O)cc2)NC(=O)Cc2ccc(F)cc2)c1 [MN551]
MN551 48.4003 nM, Cycle 2 (5 min)
  Fb, fraction bound: 1.049 and 0.9991 and 1.04
[1]
  Anisotropy: 281.3 and 275.7 and 274.4
  Fb: 1.033 and 1.011 and 0.9942
MN551 48.4003 nM, Cycle 19 (90 min), n=1
  Anisotropy normalised (0 nM MN551 = 1, free probe = 0): 1.03 and 1.015 (2×)
MN551 48.4003 nM, Cycle 20 (95 min), n=1
  Anisotropy normalised (0 nM MN551 = 1, free probe = 0): 1.011 and 0.999 and 0.9749
MN551 48.8281 nM
  Anisotropy based on Raw Data (485): 280.9 and 281.7 and 280.6
MN551 48.8281 nM, Cycle 2 (5 min)
  Fb, fraction bound: 1.013 and 1.049 and 1.036
MN551 48.8281 nM, Cycle 11 (50 min)
  Anisotropy: 280 and 280.2 and 277
MN551 48.8281 nM, Cycle 12 (55 min)
  Anisotropy: 279.7 and 280.1 and 278.6
MN551 48.8281 nM, Cycle 18 (85 min), n=1
  Anisotropy data 485,520,520: 276.3 and 276.1 and 275.6
MN551 67.7604 nM
  Anisotropy based on Raw Data (485): 278.6 and 278.4 and 280
MN551 67.7604 nM, Cycle 13 (60 min), n=1
  Normalised anisotropy (0 nM MN551 = 1, free probe = 0): 1.005 and 0.9558 and 1.011
MN551 67.7604 nM, Cycle 14 (65 min), n=1
  Normalised anisotropy (0 nM MN551 = 1, free probe = 0): 1.03 and 1.001 and 1.016
MN551 67.7604 nM, Cycle 2 (5 min)
  Fb, fraction bound: 1.032 and 1.001 and 1.045
MN551 67.7604 nM, Cycle 3 (10 min)
  Fb, fraction bound: 1.036
[2]
  Anisotropy: 277.4 and 276.4 and 273
  Fb: 0.9963 and 1.017 and 0.9808
MN551 67.7604 nM, Cycle 19 (90 min), n=1
  Anisotropy normalised (0 nM MN551 = 1, free probe = 0): 1.021 and 1.031 and 0.9864
MN551 67.7604 nM, Cycle 20 (95 min), n=1
  Anisotropy normalised (0 nM MN551 = 1, free probe = 0): 0.999 and 0.9767 and 0.9903
MN551 94.8645 nM
  Anisotropy based on Raw Data (485): 276.5 and 276.4 and 275
MN551 94.8645 nM, Cycle 13 (60 min), n=1
  Normalised anisotropy (0 nM MN551 = 1, free probe = 0): 0.9841 and 0.9576 and 0.9759
MN551 94.8645 nM, Cycle 14 (65 min), n=1
  Normalised anisotropy (0 nM MN551 = 1, free probe = 0): 1.002 and 0.9934 and 0.9731
MN551 94.8645 nM, Cycle 15 (70 min), n=1
  Normalised anisotropy (0 nM MN551 = 1, free probe = 0): 1.0078
MN551 94.8645 nM, Cycle 2 (5 min)
  Fb, fraction bound: 1.026 and 1.011 and 0.9914
MN551 94.8645 nM, Cycle 3 (10 min)
  Fb, fraction bound: 1.0139 and 1.041 and 0.9705
MN551 94.8645 nM, Cycle 6 (25 min)
  Anisotropy data 485,520,520: 273.7 and 266.4 and 265.9
[3]
  Anisotropy: 274 and 273.4 and 270.5
  Fb: 0.9646 and 0.9885 and 0.9568
MN551 94.8645 nM, Cycle 19 (90 min), n=1
  Anisotropy normalised (0 nM MN551 = 1, free probe = 0): 0.9933 and 1.003 and 0.9475
MN551 94.8645 nM, Cycle 20 (95 min), n=1
  Anisotropy normalised (0 nM MN551 = 1, free probe = 0): 0.9691 and 0.9574 and 0.9304
MN551 97.6562 nM
  Anisotropy based on Raw Data (485): 278.3 and 282.9 and 277.5
MN551 97.6562 nM, Cycle 2 (5 min)
  Fb, fraction bound: 1.002 and 1.056 and 1.014
MN551 97.6562 nM, Cycle 11 (50 min)
  Anisotropy: 278.8 and 281.3 and 277
MN551 97.6562 nM, Cycle 12 (55 min)
  Anisotropy: 279.1 and 279.7 and 276.5
MN551 97.6562 nM, Cycle 18 (85 min), n=1
  Anisotropy data 485,520,520: 274.3 and 275.7 and 270.8
MN551 132.81 nM
  Anisotropy based on Raw Data (485): 277.4 and 277.3 and 272.7
MN551 132.81 nM, Cycle 13 (60 min), n=1
  Normalised anisotropy (0 nM MN551 = 1, free probe = 0): 0.9411 and 0.9327 and 0.945
MN551 132.81 nM, Cycle 14 (65 min), n=1
  Normalised anisotropy (0 nM MN551 = 1, free probe = 0): 0.9679 and 0.9614 and 0.9597
MN551 132.81 nM, Cycle 15 (70 min), n=1
  Normalised anisotropy (0 nM MN551 = 1, free probe = 0): 0.9669 and 0.9677 and 0.9327
MN551 132.81 nM, Cycle 2 (5 min)
  Fb, fraction bound: 1.001 and 1.004 and 1.003
MN551 132.81 nM, Cycle 3 (10 min)
  Fb, fraction bound: 0.9889 and 1.004 and 0.9829
[4]
  Anisotropy data 485,520,520: 272.9 and 266.7 and 268.7
  Fb: 1.0105 and 1.013 and 1.036
[5]
  Anisotropy: 272.8 and 270.5 and 270
  Fb: 0.9534 and 0.9607 and 0.952
MN551 132.81 nM, Cycle 19 (90 min), n=1
  Anisotropy normalised (0 nM MN551 = 1, free probe = 0): 0.9528 and 0.958 and 0.9524
MN551 132.81 nM, Cycle 20 (95 min), n=1
  Anisotropy normalised (0 nM MN551 = 1, free probe = 0): 0.9516 and 0.9273 and 0.9285
MN551 185.934 nM
  Anisotropy based on Raw Data (485): 278.1 and 275.4 and 274.1
MN551 185.934 nM, Cycle 13 (60 min), n=1
  Normalised anisotropy (0 nM MN551 = 1, free probe = 0): 0.927 and 0.9051 and 0.9324
MN551 185.934 nM, Cycle 14 (65 min), n=1
  Normalised anisotropy (0 nM MN551 = 1, free probe = 0): 0.9406 and 0.935 and 0.929
MN551 185.934 nM, Cycle 15 (70 min), n=1
  Normalised anisotropy (0 nM MN551 = 1, free probe = 0): 0.9561 and 0.9184 and 0.9202
MN551 185.934 nM, Cycle 3 (10 min)
  Fb, fraction bound: 0.9759 and 0.9879 and 0.9619
[6]
  Anisotropy data 485,520,520: 271.2 and 265.9 and 264.5
  Fb: 1.005 and 0.998 and 1.018
[7]
  Anisotropy: 270.4 and 269.3 and 268.1
  Fb: 0.931 and 0.9492 and 0.9338
MN551 185.934 nM, Cycle 19 (90 min), n=1
  Anisotropy normalised (0 nM MN551 = 1, free probe = 0): 0.9172 and 0.936 and 0.9397
MN551 185.934 nM, Cycle 20 (95 min), n=1
  Anisotropy normalised (0 nM MN551 = 1, free probe = 0): 0.9014 and 0.9041 and 0.8899
MN551 195.312 nM
  Anisotropy based on Raw Data (485): 281 and 276.5 and 273
MN551 195.312 nM, Cycle 2 (5 min)
  Fb, fraction bound: 0.9639 and 1.006 and 1.008
MN551 195.312 nM, Cycle 12 (55 min)
  Anisotropy: 272.9 and 273.5 and 273
MN551 260.308 nM
  Anisotropy based on Raw Data (485): 270.2 and 268.2 and 264.5
MN551 260.308 nM, Cycle 13 (60 min), n=1
  Normalised anisotropy (0 nM MN551 = 1, free probe = 0): 0.8241 and 0.8101 and 0.8658
MN551 260.308 nM, Cycle 14 (65 min), n=1
  Normalised anisotropy (0 nM MN551 = 1, free probe = 0): 0.8651 and 0.8427 and 0.8474
MN551 260.308 nM, Cycle 15 (70 min), n=1
  Normalised anisotropy (0 nM MN551 = 1, free probe = 0): 0.8655 and 0.8321 and 0.8452
MN551 260.308 nM, Cycle 3 (10 min)
  Fb, fraction bound: 0.9027 and 0.9023 and 0.8716
MN551 260.308 nM, Cycle 6 (25 min)
  Anisotropy data 485,520,520: 268.3 and 257.5 and 257.9
